For data set [1], the system named is breast cancer (MDA-MB-231) cells. Kind of data set: SRB cytotoxicity assay, MDA-MB-231. The format is cell-based, human. The note with it: for IC50: SRB assay, 72 h, mean ± SD of three experiments; for Selectivity Index MDA-MB-231: SI = IC50 on WI-38/IC50 on MDA-MB-231. On the procedure: (§1) In the present work, sulforhodamine B (SRB) colorimetric assay was done to evaluate the cytotoxic activity of the synthesized 3-cyano pyridines 4a–4e, 5a–5e, and 6a–6e on three human cancer cell lines: prostate carcinoma (PC-3), breast cancer (MDA-MB-231) and hepatocellular carcinoma (HepG2) cell lines. 5-FU was used as a standard drug for comparison.
(§2) Human cancer cells were obtained from Nawah Scientific Inc. (Mokatam, Cairo, Egypt). Cells were maintained in DMEM media containing […] streptomycin, 100 units/mL penicillin, and 10% heat-inactivated fetal bovine serum in humified, 5% (v/v) CO2 atmosphere at 37 °C.
(§3) Cell viability was estimated using the SRB assay. Aliquots of 100 µL cell suspension (5 × 10^3 cells) in 96-well plates were incubated in complete media for 24 h. Cells were treated with a second aliquot of 100 µL media containing various concentrations of the tested compounds (0.01, 0.1, 1, 10, and 100 μM). After 72 h, cells were fixed by replacing media with 15 µL of 10% TCA and then incubated at 4 °C for 1 h. After that, TCA solution was removed, and the cells were washed 5 times with distilled water. Aliquots of 70 µL SRB solution (0.4% w/v) were added and incubated in a dark place at room temperature for 10 min. Plates were washed 3 times with 1% acetic acid and allowed to air dry overnight. Then, 150 µL of TRIS (10 mM) was added to dissolve protein-bound SRB stain. The absorbance was measured at 540 nm using BMG LABTECH®-FLUO star Omega microplate reader (Ortenberg, Germany).
A general note: The SRB assay estimates cell density from bound dye.

In data set [2] the test system is hepatocellular carcinoma (HepG2) cells. As to the kind of experiment: SRB cytotoxicity assay, HepG2. The following applies: for IC50: SRB assay, 72 h, mean ± SD of three experiments; for Selectivity Index HepG2: SI = IC50 on WI-38/IC50 on HepG2. The format is cell-based, human. On the procedure:
as §1, §2, §3

The test system of data set [3] is prostate carcinoma (PC-3) cells. As to the kind of experiment: SRB cytotoxicity assay, PC-3. In kind it is cell-based, human. The following applies: for IC50: SRB assay, 72 h, mean ± SD of three experiments; for Selectivity Index PC-3: SI = IC50 on WI-38/IC50 on PC-3. On the procedure: as §1, §2, §3
A further data set concerns normal cell line WI-38. As to the kind of experiment: SRB cytotoxicity assay, normal cell line WI-38. In kind it is cell-based. On the procedure: The cytotoxicity of the newly synthesized compounds on the normal cell line WI-38 was also evaluated in order to examine the safety of these compounds.
as §3

[4] abbreviates: Homo sapiens, WI-38, mean ± SD of three experiments.

Each structure is given as a SMILES string. Bounds are passed on as bounds.

This note sets out measurements from PMC7660103, “Discovery of Novel 3-Cyanopyridines as Survivin Modulators and Apoptosis Inducers” (Molecules, 2020).

Regarding `N#Cc1c(-c2ccccc2)cc(-c2ccc(OCc3ccc(F)cc3)cc2)nc1N` [Compound 4a, 2-Amino-6-(4-((4-fluorobenzyl)oxy)phenyl)-4-phenylnicotinonitrile], the IC50 (usually the concentration at which inhibition is half-maximal) in data set [1] (Homo sapiens, MDA-MB-231, 72 h) is over 100 µM; in data set [2] (Homo sapiens, HepG2, 72 h) it was 109 ± 0.35 µM; in data set [3] (Homo sapiens, PC-3), over 100 µM; in the data set with normal cell line WI-38 (setting [4]), 164 ± 4.5 µM. Further, the “Selectivity Index HepG2” value in data set [2] is 1.50.

For `N#Cc1c(-c2ccc(F)cc2)cc(-c2ccc(OCc3ccc(F)cc3)cc2)nc1N` [Compound 4b, 2-Amino-6-(4-((4-fluorobenzyl)oxy)phenyl)-4-(4-fluorophenyl)nicotinonitrile], the melting point – broadly, the temperature, or range, at which the solid turns liquid – was in the range of 125 to 127 °C. In data set [1] (Homo sapiens, MDA-MB-231, 72 h), this compound had a concentration for half-maximal inhibition (IC50) of over 100 µM. In data set [2] (Homo sapiens, HepG2, 72 h), this compound had an IC50 of over 100 µM. Also, the IC50 in data set [3] (Homo sapiens, PC-3) is over 100 µM. In the data set with normal cell line WI-38 (setting [4]), this compound displayed a concentration for half-maximal inhibition (IC50) of 127 ± 3.6 µM.

`N#Cc1c(-c2ccc(Cl)cc2)cc(-c2ccc(OCc3ccc(F)cc3)cc2)nc1N` [Compound 4c, 2-Amino-4-(4-chlorophenyl)-6-(4-((4-fluorobenzyl)oxy)phenyl)nicotinonitrile]: the IC50 in data set [1] (Homo sapiens, MDA-MB-231, 72 h) was over 100 µM; in data set [2] (Homo sapiens, HepG2, 72 h), 62 ± 0.61 µM; in data set [3] (Homo sapiens, PC-3) it was over 100 µM; in the data set with normal cell line WI-38 (setting [4]) it was 137 ± 4.15 µM. Moreover, the “Selectivity Index HepG2” value in data set [2] is 2.20.

For `N#Cc1c(-c2ccc(Br)cc2)cc(-c2ccc(OCc3ccc(F)cc3)cc2)nc1N` [Compound 4d, 2-Amino-4-(4-bromophenyl)-6-(4-((4-fluorobenzyl)oxy)phenyl)nicotinonitrile], the concentration for half-maximal inhibition (IC50) in data set [1] (Homo sapiens, MDA-MB-231, 72 h) was 30 ± 0.18 µM; in data set [2] (Homo sapiens, HepG2, 72 h), 66 ± 0.12 µM; in data set [3] (Homo sapiens, PC-3), 53 ± 1.12 µM; in the data set on normal cell line WI-38 (setting [4]) it was 104 ± 3.16 µM. The “Selectivity Index MDA-MB-231” value in data set [1] amounted to 3.46. The “Selectivity Index HepG2” value in data set [2] is reported as 1.57. The “Selectivity Index PC-3” value in data set [3] is on record as 1.96.

Take `COc1ccc(-c2cc(-c3ccc(OCc4ccc(F)cc4)cc3)nc(N)c2C#N)cc1` [Compound 4e, 2-Amino-6-(4-((4-fluorobenzyl)oxy)phenyl)-4-(4-methoxyphenyl)nicotinonitrile]: the IC50 in data set [1] (Homo sapiens, MDA-MB-231, 72 h) was over 100 µM; in data set [2] (Homo sapiens, HepG2, 72 h) it was over 100 µM; in data set [3] (Homo sapiens, PC-3), over 100 µM; with normal cell line WI-38 (setting [4]), 94.7 ± 2.5 µM.

Regarding `O=c1[nH]cc(F)c(=O)[nH]1` [Compound 5-FU, reference compound], the IC50 in data set [1] was found to be 9.35 ± 0.74 µM; in data set [2], 7.51 ± 0.11 µM; in data set [3] it was 8.83 ± 0.09 µM; in the data set with normal cell line WI-38 (mean ± SD of three experiments) it was 7.91 ± 1.8 µM.

As for `N#Cc1c(-c2ccccc2)cc(-c2ccc(OCc3ccc(F)cc3)cc2)[nH]c1=O` [Compound 5a, 6-(4-((4-Fluorobenzyl)oxy)phenyl)-2-oxo-4-phenyl-1,2-dihydropyridine-3-carbonitrile], the half-maximal inhibitory concentration (IC50) was determined as 52 ± 0.4 µM in data set [1] (Homo sapiens, MDA-MB-231, 72 h); 30 ± 0.59 µM in data set [2] (Homo sapiens, HepG2, 72 h); 47.5 ± 0.611 µM in data set [3] (Homo sapiens, PC-3); 174 ± 4.62 µM with normal cell line WI-38 (setting [4]). Also, the “Selectivity Index MDA-MB-231” value in data set [1] came out at 3.34. The “Selectivity Index HepG2” value in data set [2] turned out to be 5.80. In data set [3], the “Selectivity Index PC-3” value is listed as 3.66.

Consider `N#Cc1c(-c2ccc(F)cc2)cc(-c2ccc(OCc3ccc(F)cc3)cc2)[nH]c1=O` [Compound 5b, 6-(4-((4-Fluorobenzyl)oxy)phenyl)-4-(4-fluorophenyl)-2-oxo-1,2-dihydropyridine-3-carbonitrile], for which the IC50 in data set [1] (Homo sapiens, MDA-MB-231, 72 h) came out at 26.3 ± 0.73 µM; in data set [2] (Homo sapiens, HepG2, 72 h), 21.8 ± 0.67 µM; in data set [3] (Homo sapiens, PC-3), 34.2 ± 0.45 µM; with normal cell line WI-38 (setting [4]), 132 ± 4.12 µM. For the same compound, the “Selectivity Index MDA-MB-231” value in data set [1] was determined as 4.99. Further, the “Selectivity Index HepG2” value in data set [2] was 6.02. Also, in data set [3], the “Selectivity Index PC-3” value worked out at 3.84.

On to `N#Cc1c(-c2ccc(Br)cc2)cc(-c2ccc(OCc3ccc(F)cc3)cc2)[nH]c1=O` [Compound 5d, 4-(4-Bromophenyl)-6-(4-((4-fluorobenzyl)oxy)phenyl)-2-oxo-1,2-dihydropyridine-3-carbonitrile], for which the IC50 in data set [1] (Homo sapiens, MDA-MB-231, 72 h) was found to be 34.8 ± 0.9 µM; in data set [2] (Homo sapiens, HepG2, 72 h) it was 27.3 ± 0.74 µM; in data set [3] (Homo sapiens, PC-3), 30.2 ± 0.85 µM; with normal cell line WI-38 (setting [4]), 181 ± 4.55 µM. The “Selectivity Index MDA-MB-231” value in data set [1] is given as 5.20. For the same compound, in data set [2], the “Selectivity Index HepG2” value is 6.63. Further, the “Selectivity Index PC-3” value in data set [3] is listed as 5.99.

For the compound `N#Cc1c(-c2ccccc2)cc(-c2ccc(OCc3ccc(F)cc3)cc2)[nH]c1=S` [Compound 6a, 6-(4-((4-Fluorobenzyl)oxy)phenyl)-4-phenyl-2-thioxo-1,2-dihydropyridine-3-carbonitrile], the IC50 is 72 ± 0.52 µM in data set [1] (Homo sapiens, MDA-MB-231, 72 h); 60 ± 0.1 µM in data set [2] (Homo sapiens, HepG2, 72 h); over 100 µM in data set [3] (Homo sapiens, PC-3); 97.4 ± 2.88 µM in the data set on normal cell line WI-38 (setting [4]). Besides, in data set [1], the “Selectivity Index MDA-MB-231” value came out at 1.35. Also, in data set [2], the “Selectivity Index HepG2” value worked out at 1.62.

With `N#Cc1c(-c2ccc(F)cc2)cc(-c2ccc(OCc3ccc(F)cc3)cc2)[nH]c1=S` [Compound 6b, 6-(4-((4-Fluorobenzyl)oxy)phenyl)-4-(4-fluorophenyl)-2-thioxo-1,2-dihydropyridine-3-carbonitrile], the IC50 in data set [1] (Homo sapiens, MDA-MB-231, 72 h) was found to be 66.7 ± 0.12 µM; in data set [2] (Homo sapiens, HepG2, 72 h), 41 ± 0.69 µM; in data set [3] (Homo sapiens, PC-3), 60 ± 0.93 µM; in the data set on normal cell line WI-38 (setting [4]), 206 ± 4.73 µM. For the same compound, in data set [1], the “Selectivity Index MDA-MB-231” value is reported as 3.08. The “Selectivity Index HepG2” value in data set [2] stood at 5.01. The “Selectivity Index PC-3” value in data set [3] is reported as 3.42.

In the case of `N#Cc1c(-c2ccc(Cl)cc2)cc(-c2ccc(OCc3ccc(F)cc3)cc2)[nH]c1=S` [Compound 6c, 4-(4-Chlorophenyl)-6-(4-((4-fluorobenzyl)oxy)phenyl)-2-thioxo-1,2-dihydropyridine-3-carbonitrile], the half-inhibitory concentration (IC50) in data set [1] (Homo sapiens, MDA-MB-231, 72 h) amounted to 42 ± 0.48 µM; in data set [2] (Homo sapiens, HepG2, 72 h), 38 ± 0.94 µM; in data set [3] (Homo sapiens, PC-3), 41.9 ± 0.61 µM; with normal cell line WI-38 (setting [4]), 89.6 ± 2.75 µM. Further, the “Selectivity Index MDA-MB-231” value in data set [1] was 2.13. Moreover, in data set [2], the “Selectivity Index HepG2” value is 2.35. For the same compound, the “Selectivity Index PC-3” value in data set [3] was 2.13.

For the compound `N#Cc1c(-c2ccc(Br)cc2)cc(-c2ccc(OCc3ccc(F)cc3)cc2)[nH]c1=S` [Compound 6d, 4-(4-Bromophenyl)-6-(4-((4-fluorobenzyl)oxy)phenyl)-2-thioxo-1,2-dihydropyridine-3-carbonitrile], the IC50 in data set [1] (Homo sapiens, MDA-MB-231, 72 h) came out at 71.2 ± 0.56 µM; in data set [2] (Homo sapiens, HepG2, 72 h), 86 ± 0.15 µM; in data set [3] (Homo sapiens, PC-3), 99 ± 0.19 µM; in the data set on normal cell line WI-38 (setting [4]), 146 ± 4.55 µM. Besides, in data set [1], the “Selectivity Index MDA-MB-231” value is 2.04. In addition, the “Selectivity Index HepG2” value in data set [2] is listed as 1.69. Also, the “Selectivity Index PC-3” value in data set [3] was 1.47.

As for `COc1ccc(-c2cc(-c3ccc(OCc4ccc(F)cc4)cc3)[nH]c(=S)c2C#N)cc1` [Compound 6e, 6-(4-((4-Fluorobenzyl)oxy)phenyl)-4-(4-methoxyphenyl)-2-thioxo-1,2-dihydropyridine-3-carbonitrile], the half-inhibitory concentration (IC50) in data set [1] (Homo sapiens, MDA-MB-231, 72 h) is 23.4 µM; in data set [1], 23.4 ± 0.7 µM; in data set [2] (Homo sapiens, HepG2, 72 h) it was 40.3 µM; in data set [2] it was 40.3 ± 0.99 µM; in data set [3] (Homo sapiens, PC-3), 35.9 ± 0.92 µM; with normal cell line WI-38 (setting [4]), 104 ± 3.16 µM. Further, in data set [1], the “Selectivity Index MDA-MB-231” value is on record as 4.43. The “Selectivity Index HepG2” value in data set [2] is listed as 2.57. The “Selectivity Index PC-3” value in data set [3] is 2.89.
